According to patent publication US11274124B2, “Tubulysin analogues as anticancer agents and payloads for antibody-drug conjugates and methods of treatment therewith” (William Marsh Rice University, priority 2017, dated 2022):
Where two headings read alike, the source gives them in different places.

Assays:
[1] = tested on: MES SA (uterine sarcoma cell line); test: In vitro cytotoxicity assay (CellTiter-Glo, 72 hours), MES SA; type: cell-based; settings: Homo sapiens, MES-SA, 72 h
[2] = tested on: MES SA, MES SA DX and HEK 293T cells; test: In vitro cytotoxicity assay, structure-activity discussion over the cell lines tested; settings: refers to Tables 2 and 3
[3] = tested on: HEK 293T (human embryonic kidney cancer cell line); test: In vitro cytotoxicity assay (CellTiter-Glo, 72 hours), HEK 293T; type: cell-based; settings: Homo sapiens, HEK-293T, 72 h
[4] = tested on: MES SA DX (MES SA cell line with marked multi-drug resistance); test: In vitro cytotoxicity assay (CellTiter-Glo, 72 hours), MES SA DX; settings: for IC50: Homo sapiens, MES-SA, 72 h
[5] = read-out: MES SA, IC50 Value in nM
[6] = read-out: HEK 293T, IC50 Value in nM
[7] = read-out: MES SA DX, IC50 Value in nM

## CCOC(=O)[C@@H](C)C[C@H](Cc1ccccc1)NC(=O)c1csc([C@@H](C[C@H](C(C)C)N(C)C(=O)[C@H](CCC(C)C)NC(=O)[C@H]2CCCN2C)OC(C)=O)n1 [Tb98, Ethyl (2S,4R)-4-[({2-[(1R,3R)-1-acetoxy-4-methyl-3-{methyl[(2S)-5-methyl-2-({[(2R)-1-methyl-pyrrolidin-2-yl]carbonyl}amino)hexanoyl]amino}pentyl]-1,3-thiazol-4-yl}carbonyl)amino]-2-meth-yl-5-phenylpentanoate]
[1]; [5]
  IC50: 41.8 nM
[2]
  cytotoxicity potency (in words, structure-activity discussion): lack of or significantly lower cytotoxicities
[3]; [6]
  IC50: 26.5 nM
[4]; [7]
  IC50: 393 nM

## COC(=O)[C@@H](C)C[C@H](Cc1ccc(F)cc1)NC(=O)c1csc([C@@H](C[C@H](C(C)C)N(C)C(=O)[C@@H](NC(=O)[C@H]2CCCCN2C)C2CC2)OC(C)=O)n1 [Tb101, Methyl (2S,4R)-4-[({2-[(1R,3R)-1-acetoxy-3-{[(2S)-2-cyclopropyl-2-({[(2R)-1-methylpiperidin-2-yl]-carbonyl}amino)acetyl](methyl)amino}-4-methylpentyl]-1,3-thiazol-4-yl}carbonyl)amino]-5-(4-fluorophenyl)-2-methylpentanoate]
[1]; [5]
  IC50: > 1000 nM
[2]
  cytotoxicity potency (in words, structure-activity discussion): loss of activity
[3]; [6]
  IC50: > 1000 nM
[4]; [7]
  IC50: > 1000 nM

## COC(=O)C12CC(NC(=O)c3csc([C@@H](C[C@H](C(C)C)N(C)C(=O)[C@@H](NC(=O)[C@H]4CCCCN4C)C(C)C)OC(C)=O)n3)(C1)C2 [Tb102, Methyl 3-{[(2-{1-acetoxy-4-methyl-3-[methyl(3-methyl-2-{[(1-methylpiperidin-2-yl)carbonyl]amino}-butanoyl)amino]pentyl}-1,3-thiazol-4-yl)carbonyl]amino}bicyclo[1.1.1]pentane-1-carboxylate]
[1]; read-out: MES SA, IC50
  IC50: 0.926 nM
[1]; [5]
  IC50: 0.926 nM
[2]
  cytotoxicity potency (in words, structure-activity discussion): subnanomolar potencies against two of the cell lines tested
[3]; read-out: HEK 293T, IC50
  IC50: 0.355 nM
[3]; [6]
  IC50: 0.355 nM
[4]; read-out: MES SA DX, IC50
  IC50: 54.1 nM
[4]; [7]
  IC50: 54.1 nM

## COC(=O)[C@@H](C)C[C@H](Cc1ccc2ccccc2c1)NC(=O)c1csc([C@@H](C[C@H](C(C)C)N(C)C(=O)[C@@H](NC(=O)[C@H]2CCCCN2C)C(C)C)OC(C)=O)n1 [Tb104, Methyl (2S)-4-{[(2-{1-acetoxy-4-methyl-3-[methyl(3-methyl-2-{[(1-methylpiperidin-2-yl)carbonyl]-amino}butanoyl)amino]pentyl}-1,3-thiazol-4-yl)carbonyl]amino}-2-methyl-5-(2-naphthyl)pentanoate]
[1]; [5]
  IC50: 9.5 nM
[2]
  cytotoxicity potency (in words, structure-activity discussion): modest potency
[3]; [6]
  IC50: 12.8 nM
[4]; [7]
  IC50: > 1000 nM

## COC(=O)CC[C@H](Cc1ccccc1)NC(=O)c1csc([C@@H](C[C@H](C(C)C)N(C)C(=O)[C@@H](NC(=O)[C@H]2CCCCN2C)C(C)C)OC(C)=O)n1 [Tb105, Methyl 4-{[(2-{1-acetoxy-4-methyl-3-[methyl(3-methyl-2-{[(1-methylpiperidin-2-yl)carbonyl]-amino}butanoyl)amino]pentyl}-1,3-thiazol-4-yl)carbonyl]amino}-5-phenylpentanoate]
[1]; [5]
  IC50: 2.94 nM
[2]
  cytotoxicity potency (in words, structure-activity discussion): considerable loss of activity
[3]; [6]
  IC50: 1.53 nM
[4]; [7]
  IC50: > 1000 nM

## CCOC(=O)[C@@H](C)C[C@H](Cc1ccccc1)NC(=O)c1csc([C@@H](C[C@H](C(C)C)N(C)C(=O)[C@@H](NC(=O)[C@H]2CCCCN2C)C(C)(C)C)OC(C)=O)n1 [Tb106, Ethyl (2S,4R)-4-[({2-[(1R,3R)-1-acetoxy-3-{[(2S)-3,3-dimethyl-2-({[(2R)-1-methylpiperidin-2-yl]car-bonyl}amino)butanoyl](methyl)amino}-4-methylpentyl]-1,3-thiazol-4-yl}carbonyl)amino]-2-methyl-5-phenylpentanoate]
[1]; read-out: MES SA, IC50
  IC50: 0.12 nM
[1]; [5]
  IC50: 0.12 nM
[2]
  cytotoxicity potency (in words, structure-activity discussion): exceptional potencies
[3]; read-out: HEK 293T, IC50
  IC50: 0.13 nM
[3]; [6]
  IC50: 0.13 nM
[4]; read-out: MES SA DX, IC50
  IC50: 2.73 nM
[4]; [7]
  IC50: 2.73 nM

## CC(=O)O[C@H](C[C@H](C(C)C)N(C)C(=O)[C@@H](NC(=O)[C@H]1CCCCN1C)C(C)(C)C)c1nc(C(=O)N[C@@H](Cc2ccccc2)C[C@H](C)C(=O)O)cs1 [Tb107, (2S,4R)-4-[({2-[(1R,3R)-1-Acetoxy-3-{[(2S)-3,3-dimethyl-2-({[(2R)-1-methylpiperidin-2-yl]carbonyl}amino)butanoyl](methyl)amino}-4-methylpentyl]-1,3-thiazol-4-yl}carbonyl)amino]-2-methyl-5-phenylpentanoic acid]
[1]; read-out: MES SA, IC50
  IC50: 0.01 nM
[1]; [5]
  IC50: 0.01 nM
[2]
  cytotoxicity potency (in words, structure-activity discussion): exceptional potencies
[3]; read-out: HEK 293T, IC50
  IC50: 0.02 nM
[3]; [6]
  IC50: 0.02 nM
[4]
  cytotoxicities against the marked drug resistant cancer cell line MES SA DX (in words): relatively potent (low nanomolar)
[4]; read-out: MES SA DX, IC50
  IC50: 4.05 nM
[4]; [7]
  IC50: 4.05 nM

## CCOC(=O)[C@@H](C)C[C@H](Cc1ccccc1)NC(=O)c1csc([C@@H](C[C@H](C(C)C)N(C)C(=O)[C@@H](NC(=O)[C@H]2CCCCN2C)C(C)(C)CC)OC(C)=O)n1 [Tb108, Ethyl (2S,4R)-4-[({2-[(1R,3R)-1-acetoxy-3-{[(2S)-3,3-dimethyl-2-({[(2R)-1-methylpiperidin-2-yl]car-bonyl}amino)pentanoyl](methyl)amino}-4-methylpentyl]-1,3-thiazol-4-yl}carbonyl)amino]-2-methyl-5-phenylpentanoate]
[1]; read-out: MES SA, IC50
  IC50: 0.95 nM
[1]; [5]
  IC50: 0.95 nM
[2]
  cytotoxicity potency (in words, structure-activity discussion): exceptional potencies
[3]; read-out: HEK 293T, IC50
  IC50: 0.38 nM
[3]; [6]
  IC50: 0.38 nM
[4]; read-out: MES SA DX, IC50
  IC50: 6.08 nM
[4]; [7]
  IC50: 6.08 nM

## CCC(C)(C)[C@H](NC(=O)[C@H]1CCCCN1C)C(=O)N(C)[C@H](C[C@@H](OC(C)=O)c1nc(C(=O)N[C@@H](Cc2ccccc2)C[C@H](C)C(=O)O)cs1)C(C)C [Tb109, (2S,4R)-4-[({2-[(1R,3R)-1-Acetoxy-3-{[(2S)-3,3-dimethyl-2-({[(2R)-1-methylpiperidin-2-yl]car-bonyl}amino)pentanoyl](methyl)amino}-4-methylpentyl]-1,3-thiazol-4-yl}carbonyl)amino]-2-methyl-5-phenylpentanoic acid]
[1]; read-out: MES SA, IC50
  IC50: 0.36 nM
[1]; [5]
  IC50: 0.36 nM
[2]
  cytotoxicity potency (in words, structure-activity discussion): exceptional potencies
[3]; read-out: HEK 293T, IC50
  IC50: 0.01 nM
[3]; [6]
  IC50: 0.01 nM
[4]
  cytotoxicities against the marked drug resistant cancer cell line MES SA DX (in words): relatively potent (low nanomolar)
[4]; read-out: MES SA DX, IC50
  IC50: 1.39 nM
[4]; [7]
  IC50: 1.39 nM
